Results published in ChEMBL document CHEMBL4368855, “Novel tricyclic glycal-based TRIB1 inducers that reprogram LDL metabolism in hepatic cells” (Medchemcomm, 2018).
Values after ≈ are worked out from the molar mass of the structure shown. Active and inactive are the calls of the source. No cut-off for these calls is given here.

What was measured:
HepG2 [1] = assay: Induction of TRIB1 expression in human HepG2 cells measured after overnight incubation by qRT-PCR analysis; type: functional, cell-based
HepG2 [2] = assay: Induction of TRIB1 expression in human HepG2 cells assessed as increase in ApoB secretion measured after 24 hrs by ELISA; type: functional, cell-based
HepG2 [3] = assay: Down regulation of PCSK9 expression in human HepG2 cells after 24 hrs by ELISA; type: functional, cell-based
HepG2 [4] = assay: Up regulation of LDLR expression in human HepG2 cells after 24 hrs by ELISA; type: functional, cell-based
HepG2 [5] = assay: Induction of LDL uptake in human HepG2 cells preincubated for 20 hrs followed by BODIPY-FL-LDL addition and measured after 5 hrs by Hoechst 33342 staining based microscopic analysis; type: functional, cell-based
HepG2 [6] = assay: Induction of TRIB1 expression in human HepG2 cells assessed as reduction in 13[C3]-D5-glycerol incorporation into C50:2 triglyceride at 2 uM preincubated for 24 hrs followed by 13[C3]-D5-glycerol addition and measured by LC/MS analysis; type: functional, cell-based
HepG2 [7] = assay: Induction of TRIB1 expression in human HepG2 cells assessed as reduction in 13[C3]-D5-glycerol incorporation into C48:2 triglyceride at 2 uM preincubated for 24 hrs followed by 13[C3]-D5-glycerol addition and measured by LC/MS analysis; type: functional, cell-based
HepG2 [8] = assay: Up regulation of TRIB1 expression in human HepG2 cells at 1 uM measured after 6 to 24 hrs by transcriptional profiling analysis; type: functional, cell-based
HepG2 [9] = assay: Up regulation of LDLR expression in human HepG2 cells at 1 uM measured after 6 to 24 hrs by transcriptional profiling analysis; type: functional, cell-based
HepG2 [10] = assay: Down regulation of DGAT1 gene expression in human HepG2 cells at 1 uM measured after 24 hrs by transcriptional profiling analysis; type: functional, cell-based
HepG2 [11] = assay: Down regulation of MOGAT2 gene expression in human HepG2 cells at 1 uM measured after 24 hrs by transcriptional profiling analysis; type: functional, cell-based
HepG2 [12] = assay: Down regulation of MTTP gene expression in human HepG2 cells at 1 uM measured after 24 hrs by transcriptional profiling analysis; type: functional, cell-based
HepG2 [13] = assay: Down regulation of APOC3 gene expression in human HepG2 cells at 1 uM measured after 24 hrs by transcriptional profiling analysis; type: functional, cell-based
HepG2 [14] = assay: Down regulation of HMGCS1 gene expression in human HepG2 cells at 1 uM measured after 24 hrs by transcriptional profiling analysis; type: functional, cell-based
HepG2 [15] = assay: Down regulation of HMGCR gene expression in human HepG2 cells at 1 uM measured after 24 hrs by transcriptional profiling analysis; type: functional, cell-based
HepG2 [16] = assay: Down regulation of ACAT2 gene expression in human HepG2 cells at 1 uM measured after 24 hrs by transcriptional profiling analysis; type: functional, cell-based
HepG2 [17] = assay: Down regulation of MVK gene expression in human HepG2 cells at 1 uM measured after 24 hrs by transcriptional profiling analysis; type: functional, cell-based
HepG2 [18] = assay: Down regulation of LSS gene expression in human HepG2 cells at 1 uM measured after 24 hrs by transcriptional profiling analysis; type: functional, cell-based
HepG2 [19] = assay: Up regulation of JUNB expression in human HepG2 cells at 1 uM measured after 6 hrs by transcriptional profiling analysis; type: functional, cell-based
HepG2 [20] = assay: Up regulation of EGR1 expression in human HepG2 cells at 1 uM measured after 6 hrs by transcriptional profiling analysis; type: functional, cell-based
HepG2 [21] = assay: Up regulation of FOS expression in human HepG2 cells at 1 uM measured after 6 hrs by transcriptional profiling analysis; type: functional, cell-based
HepG2 [22] = assay: Up regulation of JUN expression in human HepG2 cells at 1 uM measured after 6 hrs by transcriptional profiling analysis; type: functional, cell-based
HepG2 [23] = assay: Up regulation of DUSP1 expression in human HepG2 cells at 1 uM measured after 6 hrs by transcriptional profiling analysis; type: functional, cell-based
HepG2 [24] = assay: Up regulation of ZFP36 expression in human HepG2 cells at 1 uM measured after 6 hrs by transcriptional profiling analysis; type: functional, cell-based
HepG2 [25] = assay: Up regulation of ATF3 expression in human HepG2 cells at 1 uM measured after 6 hrs by transcriptional profiling analysis; type: functional, cell-based
HepG2 [26] = assay: Effect on SREBF1 expression in human HepG2 cells at 1 uM measured after 6 to 24 hrs by transcriptional profiling analysis; type: functional, cell-based
HepG2 [27] = assay: Effect on SREBF2 expression in human HepG2 cells at 1 uM measured after 6 to 24 hrs by transcriptional profiling analysis; type: functional, cell-based
HepG2 [28] = assay: Up regulation of LDLR gene expression in human HepG2 cells measured after 6 hrs by qRT-PCR analysis relative to control; type: functional
HepG2 [29] = assay: Up regulation of TRIB1 gene expression in human HepG2 cells measured after 6 hrs by qRT-PCR analysis relative to control; type: functional
HepG2 [30] = assay: Up regulation of LDLR expression in human HepG2 cells at 10 uM measured after 6 hrs in presence of JAK inhibitor CP-690550 by qRT-PCR analysis; type: functional, cell-based
HepG2 [31] = assay: Up regulation of LDLR expression in human HepG2 cells at 10 uM measured after 6 hrs in presence of MEK inhibitor U0126 by qRT-PCR analysis; type: functional, cell-based
[32] = target: T1, Mitogen-activated protein kinase; ERK1/ERK2 (Homo sapiens) (UniProt P27361+P28482); assay: Activation of ERK1/2 phosphorylation in human HepG2 cells assessed as ratio of phosphorylated ERK1/2 to total ERK1/2 at 2 uM after 30 mins by Western blot analysis relative to control; type: cell-based
[33] = target: T1, Mitogen-activated protein kinase; ERK1/ERK2 (Homo sapiens); assay: Activation of ERK1/2 phosphorylation in human HepG2 cells assessed as ratio of phosphorylated ERK1/2 to total ERK1/2 at 2 uM after 6 hrs by Western blot analysis relative to control; type: cell-based
HepG2 [34] = assay: Up regulation of LDLR gene expression in human HepG2 cells cultured in cholesterol depleted media at 2.5 uM after 6 hrs by qRT-PCR analysis; type: functional, cell-based
HepG2 [35] = assay: Down regulation of PCSK9 gene expression in human HepG2 cells cultured in cholesterol depleted media at 2.5 uM after 24 hrs by qRT-PCR analysis; type: functional, cell-based
HepG2 [36] = assay: Up regulation of LDLR gene expression in human HepG2 cells at 2 uM after 6 hrs in presence of simvastatin by qRT-PCR analysis; type: functional, cell-based
HepG2 [37] = assay: Up regulation of PCSK9 gene expression in human HepG2 cells at 2 uM after 24 hrs in presence of atorvastatin by qRT-PCR analysis; type: functional, cell-based
HepG2 [38] = assay: Up regulation of TRIB1 gene expression in human HepG2 cells measured after 6 hrs by qRT-PCR analysis; type: functional, cell-based; details: HepG2, 6 h
HepG2 [39] = assay: Up regulation of LDLR gene expression in human HepG2 cells measured after 6 hrs by qRT-PCR analysis; type: functional, cell-based; details: HepG2, 6 h
HepG2 [40] = assay: Down regulation of PCSK9 gene expression in human HepG2 cells measured after 24 hrs by qRT-PCR analysis; type: functional, cell-based; details: HepG2, 24 h
[41] = Stability in mouse liver microsomes assessed as parent compound remaining at 1 uM incubated for 60 mins under shaking condition by UPLC/MS analysis; type: ADME, Microsome; details: read-out: Stability
[42] = Tmax in C57BL/6 mouse plasma at 10 mg/kg, ip administered as single dose by mass spectrometry; type: ADME, organism-based
[43] = Cmax in C57BL/6 mouse plasma at 10 mg/kg, ip administered as single dose by mass spectrometry; type: ADME, organism-based; design: dose 10 mg/kg, route intraperitoneal
[44] = AUC (infinity) in C57BL/6 mouse plasma at 10 mg/kg, ip administered as single dose by mass spectrometry; type: ADME, organism-based; design: dose 10 mg/kg, route intraperitoneal, time infinity; details: in vivo
[45] = Half life in C57BL/6 mouse plasma at 10 mg/kg, ip administered as single dose by mass spectrometry; type: ADME, organism-based
[46] = Clearance in C57BL/6 mouse plasma at 10 mg/kg, ip administered as single dose by mass spectrometry; type: ADME, organism-based
[47] = Apparent volume of distribution in C57BL/6 mouse plasma at 10 mg/kg, ip administered as single dose by mass spectrometry; type: ADME, organism-based; details: in vivo
[48] = Tmax in C57BL/6 mouse liver at 10 mg/kg, ip administered as single dose by mass spectrometry; type: ADME, organism-based
[49] = Cmax in C57BL/6 mouse liver at 10 mg/kg, ip administered as single dose by mass spectrometry; type: ADME, organism-based; design: dose 10 mg/kg, route intraperitoneal
[50] = AUC (infinity) in C57BL/6 mouse liver at 10 mg/kg, ip administered as single dose by mass spectrometry; type: ADME, organism-based; design: dose 10 mg/kg, route intraperitoneal, time infinity; details: in vivo
[51] = Half life in C57BL/6 mouse liver at 10 mg/kg, ip administered as single dose by mass spectrometry; type: ADME, organism-based
[52] = Apparent volume of distribution in C57BL/6 mouse liver at 10 mg/kg, ip administered as single dose by mass spectrometry; type: ADME, organism-based; details: in vivo
[53] = Unbound fraction in C57BL/6 mouse liver at 10 mg/kg, ip administered as single dose by mass spectrometry; type: ADME, organism-based
[54] = Solubility of the compound in 1% DMSO/phosphate buffered saline at pH 7.4 incubated for 18 hrs under shaking condition by UPLC/MS analysis; type: physicochemical
[55] = Drug uptake in C57BL/6 mouse at 15 to 45 mg/kg, ip administered as single dose measured at 8 to 12 hrs post dose by mass spectrometry; type: ADME, organism-based; details: in vivo
[56] = Toxicity in C57BL/6 mouse at 15 to 45 mg/kg, ip administered as single dose measured over 24 hrs; type: organism-based; details: in vivo

T1 sequence (P27361 whole entry, looked up): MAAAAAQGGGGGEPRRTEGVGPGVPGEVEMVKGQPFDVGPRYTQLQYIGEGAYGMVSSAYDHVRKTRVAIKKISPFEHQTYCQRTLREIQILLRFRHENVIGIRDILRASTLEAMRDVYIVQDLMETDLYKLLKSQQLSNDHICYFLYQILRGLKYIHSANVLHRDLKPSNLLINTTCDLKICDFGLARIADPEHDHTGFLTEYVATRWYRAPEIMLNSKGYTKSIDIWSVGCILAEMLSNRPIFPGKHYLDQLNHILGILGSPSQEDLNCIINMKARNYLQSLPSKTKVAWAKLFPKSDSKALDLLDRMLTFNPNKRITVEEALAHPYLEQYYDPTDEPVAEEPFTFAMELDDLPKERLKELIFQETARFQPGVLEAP
T1 sequence (P28482 whole entry, looked up): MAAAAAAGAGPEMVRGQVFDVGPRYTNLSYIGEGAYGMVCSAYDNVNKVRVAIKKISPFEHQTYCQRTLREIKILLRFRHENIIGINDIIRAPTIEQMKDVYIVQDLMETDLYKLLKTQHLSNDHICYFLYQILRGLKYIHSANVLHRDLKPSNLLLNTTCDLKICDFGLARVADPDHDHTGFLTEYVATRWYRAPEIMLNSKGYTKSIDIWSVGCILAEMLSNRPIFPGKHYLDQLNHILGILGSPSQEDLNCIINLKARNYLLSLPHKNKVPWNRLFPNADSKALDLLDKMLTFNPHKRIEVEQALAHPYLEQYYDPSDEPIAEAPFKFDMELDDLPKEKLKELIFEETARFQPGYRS

CN1C(=O)c2cc(NC(=O)c3ccc(C(F)(F)F)cc3)ccc2OC[C@@H]2O[C@H](CC(=O)NC3Cc4ccccc4C3)CC[C@@H]21
EC50 (HepG2 [1]): 230 nM
Activity (HepG2 [2]): Active
Activity (HepG2 [3]): Active
Activity (HepG2 [4]): Active
Activity (HepG2 [5]): Active
Activity (HepG2 [6]): Active
Activity (HepG2 [7]): Active
Activity (HepG2 [8]): Active
Activity (HepG2 [9]): Active
Activity (HepG2 [10]): Active
Activity (HepG2 [11]): Active
Activity (HepG2 [12]): Active
Activity (HepG2 [13]): Active
Activity (HepG2 [14]): Active
Activity (HepG2 [15]): Active
Activity (HepG2 [16]): Active
Activity (HepG2 [17]): Active
Activity (HepG2 [18]): Active
Activity (HepG2 [19]): Active
Activity (HepG2 [20]): Active
Activity (HepG2 [21]): Active
Activity (HepG2 [22]): Active
Activity (HepG2 [23]): Active
Activity (HepG2 [24]): Active
Activity (HepG2 [25]): Active
Activity (HepG2 [26]): inactive
Activity (HepG2 [27]): inactive
max activation (HepG2 [28]): 4.8
max activation (HepG2 [29]): 4.7
Activity (HepG2 [30]): Active
Activity (HepG2 [31]): inactive
fold change (FC) [32]: 2
fold change (FC) [33]: 2
Activity (HepG2 [34]): Active
Activity (HepG2 [35]): Active
Activity (HepG2 [36]): Active
Activity (HepG2 [37]): inactive
EC50 (HepG2 [38]): 430 nM
EC50 (HepG2 [39]): 490 nM
EC50 (HepG2 [40]): 240 nM
remaining at 1 h, 1 µM [41]: 0%
Tmax [42]: 1 h
Cmax [43]: 437 ng/mL
AUC [44]: 1010 µg/L/h
half-life [45]: 1.63 h
CL/F [46]: 165 mL/min/kg
Vz [47]: 23.3 L/kg
Tmax [48]: 4.8 min
Cmax [49]: 4660 ng/mL
AUC [50]: 11558 µg/L/h
half-life [51]: 2.25 h
Vz [52]: 2.81 L/kg
fraction unbound [53]: 0.01

CC(C)COC(=O)NC[C@@H]1CC[C@H]2[C@H](COc3ccc(NC(=O)c4ccc(C(F)(F)F)cc4)cc3C(=O)N2C)O1
max activation (HepG2 [28]): 3.7
max activation (HepG2 [29]): 5.8
EC50 (HepG2 [38]): 80 nM
EC50 (HepG2 [39]): 170 nM
EC50 (HepG2 [40]): 60 nM
solubility kinetic at 18 h [54]: 7 µM (≈ 3.95 µg/mL)
remaining at 1 h, 1 µM [41]: 28%
Tmax [42]: 0.5 h
Cmax [43]: 2310 ng/mL
AUC [44]: 3616 µg/L/h
half-life [45]: 1.12 h
CL/F [46]: 46.2 mL/min/kg
Vz [47]: 4.48 L/kg
Tmax [48]: 4.8 min
Cmax [49]: 13100 ng/mL
AUC [50]: 16803 µg/L/h
half-life [51]: 1.16 h
Vz [52]: 0.99 L/kg
fraction unbound [53]: 0.01
Drug uptake [55]: Active
Activity [56]: Non-Toxic
